This note sets out measurements from patent US4401667A, “Cephalosporins” (Karl Thomae Gesellschaft mit beschrankter Haftung, priority 1980, dated 1983).

Broadly, the ED50 is the midpoint of the dose-response relation. In general, MIC refers to the least concentration at which growth counts as inhibited.

Structures are written as SMILES. Values after ≈ are worked out from the molar mass of the structure shown. Where two headings read alike, the source gives them in different places. Some results are limits rather than exact numbers.

One test relates to E. coli ATCC 11 775. The test can be described thus: experimental E. coli infection in mice. Type of test: in vivo, mice (female, NMRI strain). The settings on record: Escherichia coli, ATCC11, sc, 168 h, s.c. administration, once 1 hour after intraperitoneal infection, observation 7 days, read-out: ED50 (dose at which 50% of the animals survive). As to the method:
Test compounds A-D of the invention and cefuroxim were tested in vivo against experimental infections in mice. E.coli ATCC 11 775 was used as the pathogenic bacteria. An intraperitoneal infection was induced with 0.2 ml of a 5% mucin suspension of the bacteria. This corresponds to approximately 1.4×10^6 E. coli bacteria per mouse. […] The treatment was applied once (1 hour after infection). The observation period was 7 days.

The subject of test [1] is Serratia marcescens ATCC 13 880. The test can be described thus: serial dilution test in the microtiter system (MIC). The format is cell-based. The settings on record: Serr. marcesc. ATCC 13880, 37° C., 18 to 20 hours. The procedure:
(§1) The tests were performed using the serial dilution test in the microtiter system. […] The nutrient medium consisted of 10 gm of peptone, 8 gm of meat extract oxoid, 3 gm of sodium chloride, and 2 gm of sec. sodium phosphate diluted with distilled water to 100 ml (pH 7.2-7.4). The age of the primary cultures was approximately 20 hours. The standardization of the bacteria suspension was effected using a photometer according to the method of Eppendorf (test tube .phi. 14 mm, filter 546 nm), using for comparison a barium sulfate suspension formed by the addition of 3.0 ml of 1% barium chloride solution to 97 ml of 1% sulfuric acid. After standardization, the test microorganisms were further diluted to a concentration of 1:1500, using a sodium chloride solution.
(§2) 16 mgm of the particular test compound were put into a 10 ml measuring flask, and the flask was subsequently filled to the mark with the solvent. The further dilution series was standardized with distilled water or the appropriate solvent.
(§3) The depressions of the microtiter plates were filled with 0.2 ml of nutrient medium. 0.01 ml of the appropriate test compound solution was then added, followed by inoculation with 0.01 ml (1 drop) of the standardized bacteria suspension. The bacteria were incubated at 37° C. for 18 to 20 hours. Control tests using only the solvent were carried out simultaneously.
(§4) The readings were made macroscopically to determine the minimum inhibitory concentration (the lowest still bacteriostatically effective concentration).
(§5) The following test organisms were used:
(§6) Staphylococcus aureus SG 511, Escherichia coli ATCC 11 775, Pseudomonas aeruginosa hamburgensis and Pseudomonas aeruginosa BC 19, Serratia marcescens ATCC 13 880, Klebsiella pneumoniae ATCC 10 031 and BC 6, Proteus mirabilis BC 17, Proteus rettgeri BC 7, Enterobacter Cloaceae ATCC 13047 and E. coli R+TEM (β-lactamase carrier).

The subject of test [2] is Pseudomonas aeruginosa BC 19. The description is as above. Type of test: cell-based. As to the method:
as §1, §2, §3, §4, §5, §6

The test system of test [3] is Escherichia coli ATCC 11 775. The description is as above. Type of test: cell-based. The settings on record: E. coli ATCC 11775, 37° C., 18 to 20 hours. The procedure:
as §1, §2, §3, §4, §5, §6

The test system of test [4] is Klebsiella pneumoniae BC 6. The description is as above. Type of test: cell-based. As to the method:
as §1, §2, §3, §4, §5, §6

The subject of the next test is Proteus rettgeri BC 7. The description is as above. As to conditions: Providencia rettgeri, BC7; Prot. rettg.; 37° C., 18 to 20 hours. The format is cell-based. The procedure:
as §1, §2, §3, §4, §5, §6

In a further test the test system is Proteus mirabilis BC 17. Described as above. The format is cell-based. As to conditions: BC17, Prot. mirab. BC 17, 37° C., 18 to 20 hours. The procedure:
as §1, §2, §3, §4, §5, §6

Test [5] relates to Staphylococcus aureus SG 511. The description is as above. As to conditions: SG511, Staph. aureus SG 511, 37° C., 18 to 20 hours. Type of test: cell-based. The procedure:
as §1, §2, §3, §4, §5, §6

In test [6] the test system is Pseudomonas aeruginosa hamburgensis. Described as above. Type of test: cell-based. As to the method:
as §1, §2, §3, §4, §5, §6

Test [7] concerns Klebsiella pneumoniae ATCC 10 031. Described as above. Type of test: cell-based. The settings on record: Kl. pneum. ATCC 10031, 37° C., 18 to 20 hours. The procedure: as §1, §2, §3, §4, §5, §6
The test system of test [8] is Enterobacter Cloaceae ATCC 13047. Described as above. Type of test: cell-based. As to conditions: Ent. cloacae ATCC 13047; 37° C., 18 to 20 hours. As to the method: as §1, §2, §3, §4, §5, §6
The test system of test [9] is E. coli R+TEM (β-lactamase carrier). Described as above. Type of test: cell-based. As to conditions: Escherichia coli. The procedure: as §1, §2, §3, §4, §5, §6
Setting [10] is: BC19, Pseud. BC 19, 37° C., 18 to 20 hours, read-out: MIC.
Setting [11] is: BC6, Kl. pneum. BC 6, 37° C., 18 to 20 hours, read-out: MIC.
[12] abbreviates: Pseud. Hbg., 37° C., 18 to 20 hours, read-out: MIC.

As to `NC(=O)CCn1nnnc1SCC1=C(C(=O)O)N2C(=O)[C@@H](NC(=O)[C@H](NC(=O)Nc3cnc(NCc4ccc(S(N)(=O)=O)s4)nc3O)c3ccc(O)cc3)[C@H]2SC1` [C, Sodium 7β-{D-α-[3-(2-(5'-aminosulfonyl-2'-thienylmethylamino)-4-hydroxy-5-pyrimidinyl)-ureido]-p-hydroxyphenylacetamido}-3-{[1-(2'-aminocarbonylethyl)-tetrazol-5-yl]-thiomethyl}ceph-3-em-4-carboxylate], the ED50 in the test on E. coli ATCC 11 775 was determined as 0.7 mg/kg. The MIC turned out to be 0.5 mg/L in test [1]; 4 mg/L in test [2] (setting [10]); 0.12 mg/L in test [3]; 0.25 mg/L in test [4] (setting [11]); 0.5 mg/L against Proteus rettgeri BC 7; 0.25 mg/L against Proteus mirabilis BC 17. The minimal inhibitory concentration (MIC) was determined as 1 mg/L in test [5]; 4 mg/L in test [6] (setting [12]); 0.25 mg/L in test [7]; 0.25 mg/L in [8]; 4 mg/L in test [9].

Consider `CS(=O)(=O)CCn1nnnc1SCC1=C(C(=O)O)N2C(=O)[C@@H](NC(=O)[C@H](NC(=O)Nc3cnc(NCc4ccco4)nc3O)c3ccc(O)cc3)[C@H]2SC1` [D, Sodium 7β-{D-α-[3-(2-(2'-furylmethylamino)-4-hydroxy-5-pyrimidinyl)-ureido]-p-hydroxyphenylacetamido}-3-{[1-(2'-methylsulfonylethyl)tetrazol-5-yl]-thiomethyl}-ceph-3-em-4-carboxylate], for which, in the test on E. coli ATCC 11 775, the 50% effective dose (ED50) lay in the range of 1 to 2 mg/kg. Besides, the MIC is 0.5 mg/L in [1]; 8 mg/L in test [2] (setting [10]); 0.25 mg/L in [3]; 0.5 mg/L in test [4] (setting [11]); 1 mg/L against Proteus rettgeri BC 7; 0.25 mg/L in the test on Proteus mirabilis BC 17. Also, the MIC in test [5] came out at 0.5 mg/L; in test [6] (setting [12]) it was 8 mg/L; in [7], 0.25 mg/L; in [8] it was 0.5 mg/L; in test [9], 8 mg/L.

With `O=C(Nc1cnc(NCc2cccnc2)nc1O)N[C@@H](C(=O)N[C@@H]1C(=O)N2C(C(=O)O)=C(CSc3nnnn3CCO)CS[C@H]12)c1ccc(O)cc1` [A, Sodium 7β-{D-α-[3-(4-hydroxy-2-(3'-pyridylmethylamino)-5-pyrimidinyl)-ureido]-p-hydroxyphenylacetamido}-3-{[1-(2'-hydroxyethyl)-tetrazol-5-yl]-thiomethyl}-ceph-3-em-4-carboxylate], the ED50 with E. coli ATCC 11 775 came out at 0.9 mg/kg. For the same molecule, the MIC in test [1] was 0.25 mg/L; in test [2] (BC19), 4 mg/L; in test [3], 0.12 mg/L; in test [4] (setting [11]), 0.5 mg/L; against Proteus rettgeri BC 7, 0.5 mg/L; against Proteus mirabilis BC 17 it was 0.12 mg/L. In addition, the MIC in test [5] was 1 mg/L; in [6], 8 mg/L; in test [7], 0.25 mg/L; in test [8], 0.5 mg/L; in [9], 8 mg/L.

Regarding `NS(=O)(=O)c1ccc(CNc2ncc(NC(=O)N[C@@H](C(=O)N[C@@H]3C(=O)N4C(C(=O)O)=C(CSc5nnnn5CCO)CS[C@H]34)c3ccc(O)cc3)c(O)n2)s1` [B], the ED50 in the test on E. coli ATCC 11 775 turned out to be 0.4 mg/kg. Besides, the MIC in test [1] amounted to 0.25 mg/L (≈ 0.299 µM); in test [2] (BC19), 2 mg/L (≈ 2.4 µM); in test [3], 0.06 mg/L (≈ 0.0719 µM); in test [4] (setting [11]) it was 0.25 mg/L (≈ 0.299 µM); with Proteus rettgeri BC 7, 0.25 mg/L (≈ 0.299 µM); in the test on Proteus mirabilis BC 17, 0.12 mg/L (≈ 0.144 µM). Also, the MIC in test [5] was determined as 1 mg/L (≈ 1.2 µM); in test [6] (setting [12]) it was 4 mg/L (≈ 4.79 µM); in test [7], 0.12 mg/L (≈ 0.144 µM); in test [8], 0.25 mg/L (≈ 0.299 µM); in [9], 4 mg/L (≈ 4.79 µM).

With `CO/N=C(\C(=O)N[C@@H]1C(=O)N2C(C(=O)O)=C(COC(N)=O)CS[C@H]12)c1ccco1` [Cefuroxim, cefuroxim, reference compound], the ED50 in the test on E. coli ATCC 11 775 was more than 100 mg/kg. Further, the MIC in [1] is 8 mg/L (≈ 18.9 µM); in test [3], 8 mg/L (≈ 18.9 µM); in [4] (BC6), 4 mg/L (≈ 9.43 µM); in the test with Proteus rettgeri BC 7 it was 2 mg/L (≈ 4.71 µM); against Proteus mirabilis BC 17, 0.5 mg/L (≈ 1.18 µM); in test [5] it was 1 mg/L (≈ 2.36 µM). Moreover, the MIC in test [7] came to 2 mg/L (≈ 4.71 µM); in [8], 32 mg/L (≈ 75.4 µM); in test [9], 4 mg/L (≈ 9.43 µM).
